Source: publication PMC9029893 (International Journal of Molecular Sciences, 2022)

Key:
[1] = system: coagulation in human citrate plasma; test: Coagulation assay (endogenous thrombin generation); assay type: biochemical
Protocol: These reagents induce a feedback reaction leading to the generation of endogenous thrombin, and coagulation. The other experimental conditions were the same as for the CL-test (Section 4.12).
The obtained curves were analyzed using dedicated software that estimates the following parameters: TGt—thrombin generation time (s), Fmax—maximum clotting (%T), Tf—plasma clotting time (s), Fvo—initial plasma clotting velocity (%T/min), Sf—area under the clot formation curve (%Txmin), Tc—clot stabilization time (s), S—area under the curve of coagulation (%Txmin).

[2] = system: clot formation and fibrinolysis in human citrate plasma; test: Clot formation and fibrinolysis test (CL-test); assay type: biochemical
Protocol: The effects of the […] on overall hemostasis potential by means of clot formation and fibrinolysis test (CL-test) were further tested based on the continuous measurement of the changes in optical transmittance over time, as described by Kostka et al. and Sikora et al.. These experiments were conducted using 470 µL of three-fold diluted human citrate plasma, 10 µL of the tested compounds, and 10 µL t-PA (final concentration in a sample 220 ng/mL). The clot formation was triggered by thrombin (10 µL, final concentration 0.5 IU/mL). The clot formation and lysis curves were determined at a wavelength of 405 nm with a spectrophotometer (Cecil CE 2021; London, UK) with circulating thermostated water (37 °C) and a Model 300 Electronic Stirrer (Rank Brothers Ltd., Cambridge, UK). The experiments were conducted in multiplicate (n = 5–7), and the results are presented as mean ± SD.
The received graphs were analyzed using dedicated software to determine the kinetic parameters of clot formation, stabilization, and fibrinolysis. The following parameters of clot formation were determined: Tt—thrombin time (s), Fmax—maximum clotting (%T), Tf—plasma clotting time (s), Fvo—initial plasma clotting velocity (%T/min), Sr—area under the clot formation curve (%Txmin). The parameters of the clot stabilization phase comprised Tc—clot stabilization time (s), Sc—area under the curve of stable clot formation (%Txmin). The parameters of fibrinolysis comprised Lmax—maximum lysis (%T), Tl—fibrinolysis time (s), Lvo—initial clot fibrinolysis velocity (%T/min), Sf—area under the fibrinolysis curve (%Txmin). Additionally, the overall potential of clot formation and fibrinolysis (CLAUC, (%Txmin)) and total time of the process of clot formation and fibrinolysis (T, (s)) were also estimated.

[3] = system: HUVEC cells; test: HUVEC integrity in RTCA-DP system (normalized cell index); assay type: cell-based, human
Protocol: The effects of sulfonamides 1–8 on the integrity and barrier properties of HUVEC were examined in real-time using a cell electric impedance monitoring system (Real-Time Cell Analyzer; Roche & ACEA Biosciences, Santa Clara, CA, USA), which is based on tracking electrical impedance signals. Any changes in cell status, adhesion, and morphology are expressed by parameter Cell Index (CI). The experimental protocol has been described previously. Briefly, the cells were seeded at a density of 15,000 cells per well on E-16 plates (Roche & ACEA Biosciences, Santa Clara, CA, USA), and cultured until the cells achieved plateau phase. Then, the medium was discarded from each well, and the solutions of the test compounds dissolved in cell culturing medium (100 μL) or pure medium (100 μL, control) were added. The measurements were then carried out for 48 h. The results are presented as mean ± SD of ‘normalized cell index’ (nCI), which is calculated by the division of a CI value at a certain time point by the CI value at a reference time point. The experiments were conducted in multiplicate (n = 4–6). The method was validated and the coefficient of variability (CV) was calculated as 9.17%–15.2%, depending on the measured time point (n = 6).

Structure (SMILES): CCCCS(=O)(=O)NC(N)=NC(=N)N(C)C [Compound 1]
- Fmax—maximum clotting ([1]; 0.06 mM): 76.30 ± 7.79 %T
- Fvo—initial plasma clotting velocity ([1]; 0.06 mM): 97.22 ± 36.13 %T/min
- Sc—area under the curve of a stable clot formation ([1]; 0.06 mM): 458.27 ± 113.77 %T x min
- Sf—area under the clot formation curve ([1]; 0.06 mM): 140.16 ± 31.01 %T x min
- S—overall potential of clot formation ([1]; 0.06 mM): 1449.09 ± 154.09 %T x min
- TGt—thrombin generation time ([1]; 0.06 mM): 161.33 ± 35.27 s
- Tf—plasma clotting time ([1]; 0.06 mM): 155.67 ± 45.29 s
- Fmax—maximum clotting ([1]; 0.3 mM): 82.67 ± 4.79 %T
- Fvo—initial plasma clotting velocity ([1]; 0.3 mM): 117.65 ± 36.38 %T/min
- Sc—area under the curve of a stable clot formation ([1]; 0.3 mM): 544.47 ± 81.13 %T x min
- Sf—area under the clot formation curve ([1]; 0.3 mM): 104.53 ± 38.44 %T x min
- S—overall potential of clot formation ([1]; 0.3 mM): 1586.01 ± 103.04 %T x min
- TGt—thrombin generation time ([1]; 0.3 mM): 162.33 ± 37.96 s
- Tf—plasma clotting time ([1]; 0.3 mM): 109.63 ± 40.06 s
- Fmax—maximum clotting ([1]; 0.6 mM): 75.62 ± 9.88 %T
- Fvo—initial plasma clotting velocity ([1]; 0.6 mM): 96.52 ± 20.91 %T/min
- Sc—area under the curve of a stable clot formation ([1]; 0.6 mM): 444.40 ± 91.71 %T x min
- Sf—area under the clot formation curve ([1]; 0.6 mM): 119.01 ± 48.07 %T x min
- S—overall potential of clot formation ([1]; 0.6 mM): 1442.42 ± 198.39 %T x min
- TGt—thrombin generation time ([1]; 0.6 mM): 176.83 ± 57.02 s
- Tf—plasma clotting time ([1]; 0.6 mM): 138.77 ± 59.29 s
- Fmax—maximum clotting ([1]; 1.5 mM): 74.15 ± 7.83 %T
- Fvo—initial plasma clotting velocity ([1]; 1.5 mM): 107.77 ± 35.80 %T/min
- Sc—area under the curve of a stable clot formation ([1]; 1.5 mM): 452.95 ± 102.22 %T x min
- Sf—area under the clot formation curve ([1]; 1.5 mM): 114.89 ± 64.82 %T x min
- S—overall potential of clot formation ([1]; 1.5 mM): 1435.77 ± 143.80 %T x min
- TGt—thrombin generation time ([1]; 1.5 mM): 172.00 ± 43.56 s
- Tf—plasma clotting time ([1]; 1.5 mM): 135.33 ± 75.79 s
- Fmax—maximum clotting ([2]; 0.06 mM): 73.71 ± 5.89 %T
- Fvo—initial plasma clotting velocity ([2]; 0.06 mM): 230.57 ± 34.38 %T/min
- Lmax—maximum lysis ([2]; 0.06 mM): 70.23 ± 10.26 %T
- Lvo—initial clot fibrinolysis velocity ([2]; 0.06 mM): 21.40 ± 6.16 %T/min
- Sc—area under the curve of a stable clot formation ([2]; 0.06 mM): 389.25 ± 160.80 %T x min
- Sf—area under the clot formation curve ([2]; 0.06 mM): 50.97 ± 7.65 %T x min
- Sl (area under the fibrinolysis curve) ([2]; 0.06 mM): 193.67 ± 107.75 %T x min
- S—overall potential of clot formation and fibrinolysis (CLAUC) ([2]; 0.06 mM): 633.89 ± 269.28 %T x min
- Tc—clot stabilization time ([2]; 0.06 mM): 324.86 ± 130.79 s
- Tf—plasma clotting time ([2]; 0.06 mM): 58.61 ± 9.61 s
- Tl—fibrinolysis time ([2]; 0.06 mM): 253.57 ± 104.13 s
- Tt—thrombin time ([2]; 0.06 mM): 18.97 ± 3.08 s
- T—total time of the process of clot formation and fibrinolysis ([2]; 0.06 mM): 656.01 ± 236.60 s
- Fmax—maximum clotting ([2]; 0.3 mM): 71.97 ± 6.78 %T
- Fvo—initial plasma clotting velocity ([2]; 0.3 mM): 227.86 ± 37.81 %T/min
- Lmax—maximum lysis ([2]; 0.3 mM): 69.09 ± 10.62 %T
- Lvo—initial clot fibrinolysis velocity ([2]; 0.3 mM): 18.53 ± 7.15 %T/min
- Sc—area under the curve of a stable clot formation ([2]; 0.3 mM): 407.13 ± 154.90 %T x min
- Sf—area under the clot formation curve ([2]; 0.3 mM): 52.45 ± 10.08 %T x min
- Sl (area under the fibrinolysis curve) ([2]; 0.3 mM): 186.37 ± 104.97 %T x min
- S—overall potential of clot formation and fibrinolysis (CLAUC) ([2]; 0.3 mM): 645.95 ± 264.51 %T x min
- Tc—clot stabilization time ([2]; 0.3 mM): 347.71 ± 124.84 s
- Tf—plasma clotting time ([2]; 0.3 mM): 61.36 ± 11.85 s
- Tl—fibrinolysis time ([2]; 0.3 mM): 260.57 ± 95.60 s
- Tt—thrombin time ([2]; 0.3 mM): 16.81 ± 3.05 s
- T—total time of the process of clot formation and fibrinolysis ([2]; 0.3 mM): 686.46 ± 226.50 s
- Fmax—maximum clotting ([2]; 0.6 mM): 70.77 ± 5.62 %T
- Fvo—initial plasma clotting velocity ([2]; 0.6 mM): 217.71 ± 37.42 %T/min
- Lmax—maximum lysis ([2]; 0.6 mM): 69.47 ± 6.67 %T
- Lvo—initial clot fibrinolysis velocity ([2]; 0.6 mM): 18.64 ± 4.38 %T/min
- Sc—area under the curve of a stable clot formation ([2]; 0.6 mM): 388.20 ± 131.19 %T x min
- Sf—area under the clot formation curve ([2]; 0.6 mM): 53.53 ± 5.26 %T x min
- Sl (area under the fibrinolysis curve) ([2]; 0.6 mM): 178.97 ± 84.17 %T x min
- S—overall potential of clot formation and fibrinolysis (CLAUC) ([2]; 0.6 mM): 620.70 ± 216.54 %T x min
- Tc—clot stabilization time ([2]; 0.6 mM): 338.00 ± 114.76 s
- Tf—plasma clotting time ([2]; 0.6 mM): 63.63 ± 6.31 s
- Tl—fibrinolysis time ([2]; 0.6 mM): 267.71 ± 99.31 s
- Tt—thrombin time ([2]; 0.6 mM): 16.75 ± 4.87 s
- T—total time of the process of clot formation and fibrinolysis ([2]; 0.6 mM): 686.09 ± 216.29 s
- Fmax—maximum clotting ([2]; 1.5 mM): 70.21 ± 3.38 %T
- Fvo—initial plasma clotting velocity ([2]; 1.5 mM): 193.57 ± 47.31 %T/min
- Lmax—maximum lysis ([2]; 1.5 mM): 66.90 ± 8.86 %T
- Lvo—initial clot fibrinolysis velocity ([2]; 1.5 mM): 20.23 ± 6.46 %T/min
- Sc—area under the curve of a stable clot formation ([2]; 1.5 mM): 389.89 ± 172.66 %T x min
- Sf—area under the clot formation curve ([2]; 1.5 mM): 52.36 ± 6.58 %T x min
- Sl (area under the fibrinolysis curve) ([2]; 1.5 mM): 159.20 ± 87.92 %T x min
- S—overall potential of clot formation and fibrinolysis (CLAUC) ([2]; 1.5 mM): 602.52 ± 263.77 %T x min
- Tc—clot stabilization time ([2]; 1.5 mM): 344.29 ± 149.70 s
- Tf—plasma clotting time ([2]; 1.5 mM): 64.21 ± 9.03 s
- Tl—fibrinolysis time ([2]; 1.5 mM): 236.57 ± 80.20 s
- Tt—thrombin time ([2]; 1.5 mM): 21.60 ± 6.05 s
- T—total time of the process of clot formation and fibrinolysis ([2]; 1.5 mM): 666.67 ± 234.05 s
- normalized Cell Index (nCI) ([3]; 0.3 mM, 3 hours): 0.832 ± 0.091
- normalized Cell Index (nCI) ([3]; 0.3 mM, 6 hours): 0.981 ± 0.085
- normalized Cell Index (nCI) ([3]; 0.3 mM, 12 hours): 1.177 ± 0.149
- normalized Cell Index (nCI) ([3]; 0.3 mM, 24 hours): 1.207 ± 0.149
- normalized Cell Index (nCI) ([3]; 0.3 mM, 36 hours): 0.875 ± 0.090
- normalized Cell Index (nCI) ([3]; 1.0 mM, 3 hours): 0.440 ± 0.032
- normalized Cell Index (nCI) ([3]; 1.0 mM, 6 hours): 0.676 ± 0.062
- normalized Cell Index (nCI) ([3]; 1.0 mM, 12 hours): 0.791 ± 0.067
- normalized Cell Index (nCI) ([3]; 1.0 mM, 24 hours): 0.940 ± 0.077
- normalized Cell Index (nCI) ([3]; 1.0 mM, 36 hours): 0.858 ± 0.054
